This assay addresses T1, human GPBAR1 receptor (Homo sapiens, UniProt Q8TDU6).
T1 construct: expressed in transfected cells
T1 sequence (Q8TDU6 1-330): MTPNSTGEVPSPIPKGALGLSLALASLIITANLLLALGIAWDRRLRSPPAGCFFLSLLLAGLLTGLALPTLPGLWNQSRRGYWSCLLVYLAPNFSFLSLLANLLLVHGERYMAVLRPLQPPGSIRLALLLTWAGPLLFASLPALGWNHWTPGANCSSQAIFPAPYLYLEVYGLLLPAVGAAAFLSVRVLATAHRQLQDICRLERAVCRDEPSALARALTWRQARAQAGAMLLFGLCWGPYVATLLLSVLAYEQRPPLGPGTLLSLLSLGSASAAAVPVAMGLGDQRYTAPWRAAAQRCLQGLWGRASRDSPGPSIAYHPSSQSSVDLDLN
Briefly: functional cAMP assay in CHO-dhfr(minus) cells expressing human GPBAR1 receptors. The conditions noted are these: TR-FRET, 30 min at 30° C. It counts as cell-based. The text has this: The cDNA of the human GPBAR1 receptor (Genbank: NM_170699 with the exception of a silent C:G mutation at position 339 from the start codon) was amplified by polymerase chain reaction (PCR) from human cDNA and inserted into pCineo (Promega) by standard methods (Current Protocols in Molecular Biology, Wiley Press, ed. Ausubel et al.). The final clone was verified by DNA sequence analysis. The plasmid was transfected into CHO cells deficient in dihydrofolate reductase activity (CHO-dhfr-) using Lipofectamine plus (Invitrogen). Clones were isolated in limited dilution conditions and identified by activities in the cAMP assay using lithocholic acid as agonist. A clonal cell line displaying the greatest activity in cAMP increases was selected and identified as giving consistently good responses for up to at least 20 passages.
CHO-dhfr(minus) cells expressing human GPBAR1 receptors are seeded 17-24 hours prior to the experiment 50,000 cells per well in a black 96 well plate with flat clear bottom (Corning Costar #3904) in DMEM (Invitrogen No. 31331), 1×HT supplement, with 10% fetal calf serum and incubated at 5% CO2 and 37° C. in a humidified incubator. The growth medium was exchanged with Krebs Ringer Bicarbonate buffer with 1 mM IBMX and incubated at 30° C. for 30 min. Compounds were added to a final assay volume of 100 μl and incubated for 30 min at 30° C. The assay was stopped by the addition of 50 μl lysis reagent (Tris, NaCl, 1.5% Triton X100, 2.5% NP40, 10% NaN3) and 50 μl detection solutions (20 μM mAb Alexa700-cAMP 1:1, and 48 μM Ruthenium-2-AHA-cAMP) and shaked for 2 h at room temperature. The time-resolved energy transfer is measured by a TRF reader (Evotec Technologies GrmbH, Hamburg Germany), equipped with a ND:YAG laser as excitation source. The plate is measured twice with the excitation at 355 nm and at the emission with a delay of 100 ns and a gate of 100 ns, total exposure time 10 s at 730 (bandwidth 30 nm) or 645 nm (bandwidth 75 nm), respectively. The measured signal at 730 nm has to be corrected for the ruthenium background, the direct excitation of Alexa and the buffer control. The FRET signal is calculated as follows: FRET=T730−Alexa730-P(T645−B645) with P=Ru730−B730/Ru645−B645, where T730 is the test well measured at […], T645 is the test well measured at 645 nm, B730 and B645 are the buffer controls at 730 nm and 645 nm, respectively, cAMP content is determined from the function of a standard curve spanning from 10 μM to 0.13 nM cAMP.
EC50 values were determined using Activity Base analysis (ID Business Solution, Limited). The EC50 values for a wide range of bile acids generated from this assay were in agreement with the values published in the scientific literature. Specificity for GPBAR1 was tested in non-transfected CHO cells in the same assay as above.
The EC50 is the concentration that produces a half-maximal response. Read a low EC50 as greater potency. Regarding `Cc1ccccc1[C@H](C/C(=N\O)c1ccn[nH]c1=O)c1ccc(C2CCN(S(C)(=O)=O)CC2)cc1` [Example 12, (R,E)-4-(1-(Hydroxyimino)-3-(4-(1-(methylsulfonyl)piperidin-4-yl)phenyl)-3-o-tolylpropyl)pyridazin-3(2H)-one], the midpoint of the response, the EC50, lay at 0.527 µM.
Consider `COc1nnccc1/C(C[C@@H](c1ccc(Br)cc1)c1ccccc1C)=N/O` [Example 4, (S,E)-3-(4-bromophenyl)-1-(3-methoxypyridazin-4-yl)-3-o-tolylpropan-1-one oxime], for which the EC50 came out at 0.031 µM.
The molecule `Cc1ccccc1[C@H](C/C(=N\O)c1ccc(=O)n(C)n1)c1ccc(-c2ccc(C(=O)O)cc2)cc1` [Example 9, (R,E)-4′-(3-(Hydroxyimino)-3-(1-methyl-6-oxo-1,6-dihydropyridazin-3-yl)-1-o-tolylpropyl)biphenyl-4-carboxylic acid] displayed an EC50 of 0.061 µM.
The same measure for `Cc1ccccc1C(C/C(=N\O)c1ccnnc1)c1ccc(C2CCN(S(C)(=O)=O)CC2)cc1` (centres unmarked) [Example 3, (E)-3-(4-(1-(methylsulfonyl)piperidin-4-yl)phenyl)-1-(pyridazin-4-yl)-3-o-tolylpropan-1-one oxime]: 0.956 µM; for `Cc1ccccc1[C@@H](C/C(=N\O)c1ccnn(C)c1=O)c1ccc(Br)cc1` [Example 6, (S,E)-4-(3-(4-Bromophenyl)-1-(hydroxyimino)-3-o-tolylpropyl)-2-methylpyridazin-3(2H)-one]: 0.09 µM.
The same measure for `Cc1ccccc1[C@H](C/C(=N\O)c1ccc(=O)n(C)n1)c1ccc(Br)cc1` [Example 7, (R,E)-6-(3-(4-Bromophenyl)-1-(hydroxyimino)-3-o-tolylpropyl)-2-methylpyridazin-3(2H)-one]: 0.006 µM.
The same measure for `Cc1ccccc1[C@H](C/C(=N\O)c1ccnn(C)c1=O)c1ccc(C2CCN(S(C)(=O)=O)CC2)cc1` [Example 13, (R,E)-4-(1-(Hydroxyimino)-3-(4-(1-(methylsulfonyl)piperidin-4-yl)phenyl)-3-o-tolylpropyl)-2-methylpyridazin-3(2H)-one]: 0.179 µM; for `Cc1ccccc1C(C/C(=N\O)c1ccnnc1)c1ccc(-c2ccc(C(=O)O)cc2)cc1` (centres unmarked) [Example 2, (E)-4′-(3-(hydroxyimino)-3-(pyridazin-4-yl)-1-o-tolylpropyl)biphenyl-4-carboxylic acid]: 1.56 µM; for `COc1nnccc1/C(C[C@H](c1ccc(C2CCN(S(C)(=O)=O)CC2)cc1)c1ccccc1C)=N/O` [Example 11, (R,E)-1-(3-Methoxypyridazin-4-yl)-3-(4-(1-(methylsulfonyl)piperidin-4-yl)phenyl)-3-o-tolylpropan-1-one oxime]: 0.052 µM.
`Cc1ccccc1[C@H](C/C(=N\O)c1ccc(=O)n(C)n1)c1ccc(S(C)(=O)=O)cc1` [Example 10, (R,E)-6-(1-(Hydroxyimino)-3-(4-(methylsulfonyl)phenyl)-3-o-tolylpropyl)-2-methylpyridazin-3(2H)-one] had an EC50 of 0.06 µM.
Regarding `Cc1ccccc1[C@@H](C/C(=N\O)c1ccn[nH]c1=O)c1ccc(Br)cc1` [Example 5, (S,E)-4-(3-(4-Bromophenyl)-1-(hydroxyimino)-3-o-tolylpropyl)pyridazin-3(2H)-one], a half-maximal effect (EC50) was put at 0.148 µM.
The same measure for `Cc1ccccc1[C@H](C/C(=N\O)c1ccnnc1)c1ccc(Br)cc1` [Example 1, (R,E)-3-(4-Bromophenyl)-1-(pyridazin-4-yl)-3-o-tolylpropan-1-one oxime]: 0.08 µM; for `Cc1ccccc1[C@H](C/C(=N\O)c1ccc(=O)n(C)n1)c1ccc(C2CCN(S(C)(=O)=O)CC2)cc1` [Example 8, (R,E)-6-(1-(Hydroxyimino)-3-(4-(1-(methylsulfonyl)piperidin-4-yl)phenyl)-3-o-tolylpropyl)-2-methylpyridazin-3(2H)-one]: 0.033 µM.
Take `Cc1ccccc1[C@@H](C/C(=N\O)c1ccc(=O)[nH]n1)c1ccc(Br)cc1` [Example 14, (S,E)-6-(3-(4-Bromophenyl)-1-(hydroxyimino)-3-o-tolylpropyl)pyridazin-3(2H)-one]: a half-maximal response (EC50) required 0.648 µM.

These data come from patent US9090565B2, “1-pyridazinyl-hydroxyimino-3-phenyl-propanes” (Hoffmann-La Roche Inc., priority 2011, dated 2015).
